Assay results: ChEMBL document CHEMBL5257023, “Identification of leads for antiproliferative activity on MDA-MB-435 human breast cancer cells through pharmacophore and CYP1A1-mediated metabolism” (Eur J Med Chem, 2016)

System: MCF7
Assay: Anticancer activity against human MCF7 cells assessed as inhibition of cell growth
Type: functional, cell-based

IC50 [µM]	SMILES
0.653	COc1cc(-c2nc3cc(F)ccc3s2)cc(O)c1OC
0.0019	COc1cc(-c2nc3cc(F)ccc3s2)cc(OC)c1OC
0.82	COc1ccc(-c2nc3cc(F)ccc3s2)cc1I
52.7	COc1ccc(-c2nc3ccccc3s2)cc1OC
27.9	COc1ccc(-c2nc3cc(Cl)ccc3s2)cc1OC
0.062	COc1ccc(-c2nc3ccc(F)cc3s2)cc1OC
47.2	COc1ccc(-c2coc3c(F)c(F)ccc3c2=O)cc1OC
64.9	O=c1c(-c2ccc(Cl)cc2)coc2ccccc12
60	O=c1c(-c2ccc3c(c2)OCO3)coc2ccc(F)cc12
90.6	COc1ccc(-c2coc3cc(F)ccc3c2=O)cc1OC
88.1	COc1ccc(-c2coc3ccccc3c2=O)cc1OC
13.6	COc1ccc(-c2nc3cc(Br)ccc3s2)cc1OC
0.72	Oc1ccc(-c2nc3cc(F)ccc3s2)cc1O
8.8	O=c1c(-c2ccc(Br)cc2)coc2ccccc12
46.7	COc1ccc(-c2coc3c(F)cc(F)cc3c2=O)cc1OC

The remaining lines, values behind:

SMILES	IC50 [µM]
COc1ccc(-c2nc3c(F)cccc3s2)cc1OC	0.005
COCOc1ccc(-c2nc3cc(F)ccc3s2)cc1OC	0.065
CCOc1cc(-c2nc3cc(F)ccc3s2)ccc1OC	0.08
c1ccc2sc(-c3ccc4c(c3)OCO4)nc2c1	57.8
COc1ccc(-c2nc3cc(F)ccc3s2)cc1C	0.048
COc1ccc(-c2nc3cc(F)ccc3s2)cc1F	0.87
COc1ccc(-c2nc3cc(F)ccc3s2)cc1Cl	0.76
COc1ccc(-c2nc3cc(F)ccc3s2)cc1Br	0.85
COc1cc(OC)cc(-c2nc3cc(F)ccc3s2)c1	1.23
O=c1c(-c2cccc([N+](=O)[O-])c2)coc2ccccc12	7.9
COc1ccc(-c2coc3cc(F)c(F)cc3c2=O)cc1OC	41.5
COc1ccc(-c2coc3c(F)cccc3c2=O)cc1OC	75.5
COc1ccc(-c2coc3cc(F)ccc3c2=O)cc1	43.8
Cc1cc(-c2nc3cc(F)ccc3s2)ccc1N	0.0001
COc1ccc(-c2nc3cc(F)ccc3s2)c(OC)c1OC	0.023
COc1ccc(-c2coc3ccc(F)cc3c2=O)cc1OC	93.1
COc1ccc(-c2coc3ccccc3c2=O)cc1	81.4
